Patent US9353150B2, “Substituted pyrazino[1′,2′:1 ,5]pyrrolo[2,3-b]-indole-1,4-diones for cancer treatment” (Massachusetts Institute of Technology, priority 2012, dated 2016)
Entries after “also recorded” stand apart in the source; their conditions may differ. Like-named read-outs stand apart in the source and are kept apart here.

Tests used:
[1] = test system: U-937 (hystiocytic lymphoma); assay: 72-hour IC50 determination for non-adherent cells using MTS; assay type: cell-based, human
Protocol: (§1) Certain synthesized compounds were screened for their ability to induce death in two human cancer cell lines: U-937 (leukemic monocyte lymphoma) and HeLa (cervical cancer).
(§2) Cells were grown in media supplemented with fetal bovine serum (FBS) and antibiotics ([…]). Specifically, experiments were performed using the following cell lines and media compositions: U-937, HeLa, H460, and 786-O (RPMI-1640+10% FBS), and MCF7 (EMEM+10% FBS). Cells were incubated at 37° C. in a 5% CO2, 95% humidity atmosphere.
(§3) In a 96-well plate, compounds were pre-added as DMSO stocks in triplicate to achieve a final concentration of 1%. DMSO and cell-free wells served as the live and dead control, respectively. U-937 (5,000 cells/well) cells were distributed in 100 μL media to the compound-containing plate. After 72 hours, cell viability was assessed by adding 20 μL of a PMS/MTS solution (Cory, A. H.; Owen, T. C.; Barltrop, J. A.; Cory, J. G. Cancer Commun. 1991, 3, 207) to each well, allowing the dye to develop at 37° C. until the live control had processed MTS, and reading the absorbance at λ=490 nm. IC50 values were determined from three or more independent experiments using TableCurve (San Jose, Calif.).

[2] = test system: HeLa (cervical carcinoma); assay: 72-hour IC50 determination for adherent cells using sulforhodamine B (SRB); assay type: cell-based, human
Protocol: as §1, §2
(§4) Adherent cells (HeLa, H460, 786-O, and MCF7) were added into 96-well plates (5,000 cells/well for HeLa cell line; 2,000 cells/well for H460, 786-O, and MCF7 cell lines) in 100 μL media and were allowed to adhere for 2-3 hours. Compounds were solubilized in DMSO as 100× stocks, added directly to the cells (100 μL final volume), and tested over a range of concentrations in triplicate (1% DMSO final) on a half-log scale. Concentrations tested ranged from […] to 10 μM, depending on the potency of the compound. DMSO and cell-free wells served as the live and dead control, respectively. After 72 hours of continuous exposure, the plates were evaluated using the SRB colorimetric assay as described previously (Vichai, V.; Kirtikara, K. Nature Prot. 2006, 1, 1112). Briefly, media was removed from the plate, and cells were fixed by the addition of 100 μL cold 10% trichloroacetic acid in water. After incubating at 4° C. for an hour, the plates were washed in water and allowed to dry. Sulforhodamine B was added as a 0.057% solution in 1% acetic acid (100 μL), and the plates were incubated at room temperature for 30 minutes, washed in 1% acetic acid, and allowed to dry. The dye was solubilized by adding 10 mM Tris base solution (pH 10.5, 200 μL) and incubating at room temperature for 30 minutes. Plates were read at λ=510 nm. IC50 values were determined from three or more independent experiments using TableCurve (San Jose, Calif.).

human cancer cell lines = assay: Anticancer activity in human cancer cell lines, not tied to one cell line; assay type: cell-based; settings: for anticancer activity, in words: human cancer cell lines, 72-hour exposure
Protocol: as §1
(§5) Certain provided compounds were tested in culture against a panel of three supplementary human cancer cell lines representing three additional tumor histologies (H460, lung carcinoma; 786-O, renal carcinoma; MCF-7, breast carcinoma). As shown in Table E1-2, the ETPs retain their potency across the cell lines. In some embodiments, a provided compound is active in all cell lines. In some embodiments, a provide compound can be used to selectively target certain cells and/or cancers. […] Without the intention to be limited, Applicant notes that certain cell lines could be more sensitive to provided compounds; for example, U-937 and HeLa are slightly more sensitive to the ETPs than the other three cell lines.
as §4, §3

786-O (renal carcinoma) = assay: 72-hour IC50 determination for adherent cells using sulforhodamine B (SRB); assay type: cell-based, human; settings: error is standard deviation of the mean, n ≧ 3, read-out: 786-O, 72-hour IC50 (Table E1-2)
Protocol: as §5, §2, §4

H460 (lung carcinoma) = assay: as above; assay type: cell-based, human; settings: error is standard deviation of the mean, n ≧ 3, read-out: H460, 72-hour IC50 (Table E1-2)
Protocol: as §5, §2, §4

MCF-7 (breast carcinoma) = assay: as above; assay type: cell-based, human; settings: error is standard deviation of the mean, n ≧ 3, read-out: MCF-7, 72-hour IC50 (Table E1-2)
Protocol: as §5, §2, §4

[3] = Homo sapiens, U-937, 72 h, read-out: U-937, 72-hour IC50 (Table E1-1)
[4] = Homo sapiens, U-937, 72 h, read-out: U-937, 72-hour IC50 (Table E1-2)
[5] = Homo sapiens, HeLa, 72 h, read-out: HeLa, 72-hour IC50 (Table E1-1)
[6] = Homo sapiens, HeLa, 72 h, read-out: HeLa, 72-hour IC50 (Table E1-2)
[7] = Homo sapiens, 786-0, 72-hour exposure
[8] = Homo sapiens, NCI-H460, 72-hour exposure
[9] = Homo sapiens, MCF7, 72-hour exposure
[10] = 72-hour exposure, MTS, error is standard deviation of the mean, n ≧ 3, read-out: U-937, 72-hour IC50 (Table E1-1)
[11] = 72-hour exposure, MTS, error is standard deviation of the mean, n ≧ 3, read-out: U-937, 72-hour IC50 (Table E1-2)
[12] = 72-hour exposure, SRB, error is standard deviation of the mean, n ≧ 3, read-out: HeLa, 72-hour IC50 (Table E1-1)
[13] = 72-hour exposure, SRB, error is standard deviation of the mean, n ≧ 3, read-out: HeLa, 72-hour IC50 (Table E1-2)
[14] = Homo sapiens, U-937, 72-hour exposure, MTS, error is standard deviation of the mean, n ≧ 3, read-out: U-937, 72-hour IC50 (Table E1-1)
[15] = Homo sapiens, HeLa, 72-hour exposure, SRB, error is standard deviation of the mean, n ≧ 3, read-out: HeLa, 72-hour IC50 (Table E1-1)

Row | Compound | IC50 [1, 10] [nM] | IC50 [1, 11] [nM] | IC50 [2, 12] [nM] | IC50 [2, 13] [nM] | IC50 (786-O (renal carcinoma); 72-hour exposure) [nM] | IC50 (H460 (lung carcinoma); 72-hour exposure) [nM] | IC50 (MCF-7 (breast carcinoma); 72-hour exposure) [nM] | IC50 [1, 14] [nM] | IC50 [2, 15] [nM] | anticancer activity, in words (human cancer cell lines) | also measured
1 | CN1C(=O)[C@@]23C[C@]4(c5cc[nH]c5)c5ccccc5N(S(=O)(=O)c5ccccc5)[C@@H]4N2C(=O)[C@@H]1SS3 [Compound 32, C3-(Pyrrol-3′-yl) epidithiodiketopiperazine] | – | – | – | – | – | – | – | – | – | – | IC50 ([1]; Homo sapiens, U-937, 72 h, read-out: IC50 (U-937)): 2.8 to 14.8 nM; IC50 [1, 3]: 14.8 ± 3.1 nM; IC50 [1, 4]: 14.8 ± 3.1 nM; IC50 [2, 5]: 26.8 ± 4.8 nM; IC50 [2, 6]: 26.8 ± 4.8 nM; IC50 ([2]; Homo sapiens, HeLa, 72 h, read-out: IC50 (HeLa)): 22 to 75 nM; change in activity across cell lines (human cancer cell lines; five cell lines of Table E1-2): 4 fold; IC50 (786-O (renal carcinoma); [7]): 66 ± 23 nM; IC50 (H460 (lung carcinoma); [8]): 31.8 ± 2.5 nM; IC50 (MCF-7 (breast carcinoma); [9]): 61 ± 11 nM
2 | CN1C(=O)[C@@]23C[C@]4(c5c[nH]c6ccccc56)c5ccccc5N(S(=O)(=O)c5ccccc5)[C@@H]4N2C(=O)[C@]1(C)SS3 [Compound 60, C3-(Indol-3′-yl) epidithiodiketopiperazines] | 56 ± 23 | 56 ± 23 | 67 ± 11 | 67 ± 11 | 907 ± 48 | 165 ± 65 | 327 ± 36 | – | – | – | –
3 | CN1C(=O)C23CC4(C56CC78SC(=S)S[C@](C)(C(=O)N7[C@H]5N(S(=O)(=O)c5ccccc5)c5ccccc56)N(C)C8=O)c5ccccc5N(S(=O)(=O)c5ccccc5)[C@@H]4N2C(=O)[C@@]1(C)SC(=S)S3 (stereo partly shown) [Compound 18, Dimeric bisdithiepanethione] | – | – | – | – | – | – | – | 2.9 ± 2.1 | 1.1 ± 0.8 | competent anticancer agents; also recorded: active across the board | IC50 ([1]; Homo sapiens, U-937, 72-hour exposure, MTS, error is standard deviation of the mean, n ≧ 3, read-out: U-937, 72-hour IC50 (Table E1-2)): 2.9 ± 2.1 nM; IC50 ([2]; Homo sapiens, HeLa, 72-hour exposure, SRB, error is standard deviation of the mean, n ≧ 3, read-out: HeLa, 72-hour IC50 (Table E1-2)): 1.1 ± 0.8 nM; IC50 (786-O (renal carcinoma); [7]): 14.9 ± 4.4 nM; IC50 (H460 (lung carcinoma); [8]): 18.5 ± 2.7 nM; IC50 (MCF-7 (breast carcinoma); [9]): 10.7 ± 8.1 nM
4 | CN1C(=O)[C@@]23C[C@]4(Br)c5ccccc5N(S(=O)(=O)c5ccccc5)[C@@H]4N2C(=O)[C@@H]1SS3 [Compound 30, C3-Bromo epidithiodiketopiperazines] | 5 ± 1.3 | 5 ± 1.3 | 44.9 ± 1.3 | 44.9 ± 1.3 | 162 ± 35 | 277 ± 44 | 152 ± 42 | – | – | intermediately good activity | –
5 | CCCC12CC34SSC(C)(C(=O)N3C1N(S(=O)(=O)c1ccccc1)c1ccccc12)N(C)C4=O (stereo not drawn) [Compound 61, β-C3-Propyl epidithiodiketopiperazine] | – | – | – | – | – | – | – | – | – | substantially lower potencies | IC50 [1, 3]: > 1000 nM; IC50 [2, 5]: > 1000 nM
6 | CC(=O)OC[C@]12SS[C@@]3(C[C@]4([C@]56C[C@@]78SS[C@@](COC(C)=O)(C(=O)N7[C@H]5Nc5ccccc56)N(C)C8=O)c5ccccc5N[C@@H]4N3C1=O)C(=O)N2C [Compound 15] | 4.7 ± 1.3 | 4.7 ± 1.3 | 14.1 ± 7.4 | 14.1 ± 7.4 | 95 ± 23 | 140 ± 82 | 77 ± 36 | – | – | – | –
7 | CN1C(=O)C23CC4(c5c[nH]c6ccccc56)c5ccccc5N(S(=O)(=O)c5ccccc5)[C@@H]4N2C(=O)[C@H]1SCS3 (stereo partly shown) [Compound 38, C3-(Indol-3′-yl)dithioacetal] | – | – | – | – | – | – | – | 82 ± 28 | 465 ± 37 | active | –
8 | CC(=O)OC[C@]12SSS[C@@]3(C[C@]4([C@]56C[C@@]78SSS[C@@](COC(C)=O)(C(=O)N7[C@H]5Nc5ccccc56)N(C)C8=O)c5ccccc5N[C@@H]4N3C1=O)C(=O)N2C [Compound 16] | 9.7 ± 2.1 | 9.7 ± 2.1 | 70 ± 20 | 70 ± 20 | 204 ± 40 | 187 ± 79 | 263 ± 98 | – | – | – | –
9 | CN1C(=O)C23CC4(c5c[nH]c6ccccc56)c5ccccc5N(S(=O)(=O)c5ccccc5)C4N2C(=O)C1(C)SC(=S)S3 (stereo not shown) [Compound 66, C3-(Indo-3′-v)dithiepanethiones] | > 1000 | – | > 1000 | – | – | – | – | – | – | inactive | –
10 | CCC[C@]12CC34SC(=S)SC(C)(C(=O)N3C1N(S(=O)(=O)c1ccccc1)c1ccccc12)N(C)C4=O (stereo partly shown) [Compound 67, C3-Propyl dithiepanethiones] | – | – | – | – | – | – | – | > 1000 | > 1000 | inactive | –
11 | CN1C(=O)[C@@]2(SCc3ccccc3)C[C@]3(c4cn(C(=O)OC(C)(C)C)c5ccccc45)c4ccccc4N(S(=O)(=O)c4ccccc4)[C@@H]3N2C(=O)[C@@H]1SCc1ccccc1 [Compound 43, C3-(N-Boc-indol-3′-yl)bis(benzylthioether)] | – | – | – | – | – | – | – | > 10000 | > 10000 | – | IC50 (human cancer cell lines; Homo sapiens, cell line not named in the sentence (U-937 and HeLa screened), read-out: IC50 (did not display any anticancer activity)): > 10000 nM
12 | CSS[C@H]1C(=O)N2[C@H]3N(S(=O)(=O)c4ccccc4)c4ccccc4[C@@]3(c3c[nH]c4ccccc34)C[C@]2(SSC)C(=O)N1C [Compound 46, C3-(Indol-3′-yl)bis(methyldlsulfane)] | – | – | – | – | – | – | – | 20.4 ± 9 | 36.6 ± 3.9 | competent anticancer agents | –
13 | CN1C(=O)[C@]23C[C@]4(Br)c5ccccc5N(S(=O)(=O)c5ccccc5)[C@@H]4N2C(=O)[C@H]1SS3 [Compound 34, C3-Bromo epidithiodiketopiperazines] | 59 ± 23 | – | 550 ± 33 | – | – | – | – | – | – | inactive | –
14 | CC(=O)OC[C@]12SSS[C@@]3(C[C@]4([C@]56C[C@@]78SSS[C@@](COC(C)=O)(C(=O)N7[C@H]5N(C(=O)C(F)(F)F)c5ccccc56)N(C)C8=O)c5ccccc5N(C(=O)C(F)(F)F)[C@@H]4N3C1=O)C(=O)N2C [Compound 17] | 8.9 ± 2.3 | 8.9 ± 2.3 | 28.1 ± 2.2 | 28.1 ± 2.2 | 189 ± 26 | 179 ± 88 | > 333 | – | – | – | –
15 | CN1C(=O)[C@@]23C[C@]4(c5c[nH]c6ccccc56)c5ccccc5N[C@@H]4N2C(=O)[C@@H]1SS3 [Compound 10, (+)-12-deoxybionectin A] | – | – | – | – | – | – | – | – | – | – | IC50 [1, 3]: 17.4 ± 1.1 nM; IC50 [1, 4]: 17.4 ± 1.1 nM; IC50 [2, 5]: 117 ± 26 nM; IC50 [2, 6]: 117 ± 26 nM; IC50 (786-O (renal carcinoma); [7]): 181 ± 26 nM; IC50 (H460 (lung carcinoma); [8]): 215 ± 100 nM; IC50 (MCF-7 (breast carcinoma); [9]): 156 ± 18 nM
